Data reported in patent publication US8957035B2, “Toll like receptor (TLR) stimulation for ocular angiogenesis and macular degeneration” (University of Kentucky Research Foundation, priority 2006, dated 2015).
“Also recorded” adds a separate entry of the source. d = 2'-deoxy (DNA); r = 2'-OH (RNA)

What was measured:
Format in all cases: in vivo, mouse
[1] = tested on: choroidal neovascularization; test: Laser-induced choroidal neovascularization (CNV) volume in mice; settings: for effect on choroidal neovascularization (CNV): FIG. 1, 0.2-2 μg, poly I:C vs control poly dI:dC, loxoribine vs control PBS; for ability to suppress CNV in IL-10−/− mice / ability to suppress CNV in IL-12−/− mice: FIG. 6, 2 μg; for ability to suppress CNV in IL-10−/− mice: IL-10−/− mice versus wild-type; for ability to suppress CNV in IL-12−/− mice: IL-12−/− mice versus wild-type; for CNV volume in wild-type mice versus PBS: FIG. 7/8, 0.25 μg into the vitreous humor immediately after laser injury; for CNV in TLR3−/− mice: FIG. 7, differences not statistically significant
Source text: All animal experiments were in accordance with the guidelines of the University of Kentucky IACUC and the Association for Research in Vision and Ophthalmology. Male C57BL/6J mice (Jackson Laboratory) between 6 and 8 weeks of age were used to minimize variability. The sources for the other mouse strains were: TLR3−/−, IL-10−/−, IL-12−/−, IFNγ−/− (Jackson Laboratory), IFNAR-1−/− (gift of H. Virgin, Washington University), TLR7−/− (gift of D. Golenback, University of Massachusetts), TLR9−/− (gift of E. Pearlman, Case Western Reserve University), VEGFR1 tyrosine kinase−/− (gift of M. Shibuya, University of Tokyo), Trif−/− (Trif deficient Lps2 mice from The Jackson Laboratories). For all procedures, anesthesia was achieved by intraperitoneal injection of 50 mg/kg ketamine hydrochloride (Ft. Dodge Animal Health) and 10 mg/kg xylazine (Phoenix Scientific), and pupils were dilated with topical 1% tropicamide (Alcon Laboratories).
(§1) Laser photocoagulation (532 nm, 200 mW, 100 ms, 75 μm) (OcuLight GL, Iridex Corporation) was performed (volume studies: 3/eye; protein analyses/flow cytometry: 12/eye) on both eyes of each animal to induce CNV (choroidal neovascularization). CNV volumes were measured by scanning laser confocal microscope (TCS SP, Leica) with 0.5% FITC-Griffonia simplicifolia Isolectin B4 (Vector Laboratories) or 0.5% FITC-rat antibody against mouse CD31 (BD Biosciences). Volumes obtained by lectin and CD31 staining were highly correlated (r^2=0.95).
Also tested were shorter non-targeted siRNAs: a 5+2 length nucleotide (5 nucleotides plus a 2 nucleotide overhang, with one strand having the sequence UAAGGdTdT and the other strand having the sequence CCUUAdTdT), and a 11+2 length nucleotide (11 nucleotides plus a 2 nucleotide overhang, with one strand having the sequence […]dTdT and the other strand having the sequence […]dTdT).
Because the probability of each laser lesion developing CNV is influenced by the group to which it belongs, the mouse, the eye, and the laser spot, the mean lesion volumes were compared using a linear mixed model with a split plot repeated measures design. The whole plot factor was the genetic group to which the animal belonged while the split plot factor was the eye. Statistical significance was determined at the 0.05 level. Post hoc comparison of means was constructed with a Bonferroni adjustment for multiple comparisons. ELISA measurements were compared by Student's t-test.

IL-10 = IL-10 protein ELISA in RPE/choroid after laser injury; settings: FIG. 4; 2 μg; wild-type mice; 3 days after laser injury
Experimental: as §1, with “(r^2=0.95). […]” for “(r^2=0.95).”
(§2) IL-10 and IL-12 protein levels were measured by ELISA (Peprotech) according to the manufacturer's instructions, as were IFN-α, IFN-β and IFN-γ (PBL InterferonSource). Total protein was measured according to Biorad.
(§3) Because the probability of each laser lesion developing CNV is influenced by the group to which it belongs, the mouse, the eye, and the laser spot, the mean lesion volumes were compared using a linear mixed model with a split plot repeated measures design. […] Statistical significance was determined at the 0.05 level. […]

IL-12 = IL-12 protein ELISA in RPE/choroid after laser injury; settings: FIG. 4; 2 μg; wild-type mice; 1 day after laser injury
Experimental: as §1, with “(r^2=0.95). […]” for “(r^2=0.95).”
as §2, §3
IFN-α and IFN-β were measured by ELISA and normalized to total protein. […] IFN-γ was measured by ELISA (PBL InterferonSource) and IL-12 was measured by ELISA (eBioscience) and normalized to total protein. *P<0.05.

[2] = dose-dependent, intravitreous immediately after laser injury, P<0.05

## C=CCn1c(=O)n([C@@H]2O[C@H](CO)[C@@H](O)[C@H]2O)c2nc(N)[nH]c(=O)c21 [Loxoribine]
[1]; [2]
  effect on choroidal neovascularization (CNV): reduced CNV
[1]
  ability to suppress CNV in IL-10−/− mice: markedly reduced
  ability to suppress CNV in IL-12−/− mice: markedly reduced
IL-10
  IL-10 protein expression in the RPE/choroid: induced
IL-12
  IL-12 protein expression in the RPE/choroid: induced

## Bevasiranib: siRNA against VEGF-A; sense ACCUCACCAAGGCCAGCACdTdT, antisense GUGCUGGCCUUGGUGAGGUdTdT (sense ACCUCACCAAGGCCAGCACTT; antisense GUGCUGGCCUUGGUGAGGUTT; sugars from the 5' end r19 d2, backbone not given here)
[1]; P<0.05
  CNV volume in wild-type mice versus PBS: essentially equally effective in suppressing CNV
[1]; 0.25 μg intravitreous
  CNV in TLR3−/− mice: non of them suppressed CNV

## Poly I:C
[1]; [2]
  effect on choroidal neovascularization (CNV): reduced CNV
[1]
  ability to suppress CNV in IL-10−/− mice: markedly reduced
  ability to suppress CNV in IL-12−/− mice: markedly reduced
IL-10
  IL-10 protein expression in the RPE/choroid: induced
IL-12
  IL-12 protein expression in the RPE/choroid: induced

## Sirna-027: siRNA against VEGFR-1; sense CUGAGUUUAAAAGGCACCCdTdT, antisense GGGUGCCUUUUAAACUCAGdTdT (sense CUGAGUUUAAAAGGCACCCTT; antisense GGGUGCCUUUUAAACUCAGTT; sugars from the 5' end r19 d2, backbone not given here)
[1]; P<0.05
  CNV volume in wild-type mice versus PBS: essentially equally effective in suppressing CNV; also recorded: significantly lower than control
[1]; 0.25 μg intravitreous
  CNV in TLR3−/− mice: non of them suppressed CNV
[1]; FIG. 8, 0.25 μg intravitreous, VEGFR1 tyrosine kinase−/− mice, P<0.05
  CNV in VEGFR1 tk−/− mice versus PBS: suppressed CNV

## recombinant mouse IFNγ: recombinant mouse IFNγ (eBioscience)
[1]; FIG. 14, intravitreous immediately after laser injury, dose-dependent, P<0.05
  effect on choroidal neovascularization in wild-type C57BL/6J mice: reduced choroidal neovascularization
